Consider 18 compounds from patent US10759766B2, “Certain chemical entities, compositions, and methods” (NeuPharma, Inc., priority 2011, dated 2020).

One experiment concerns the target BRAF V600E (Homo sapiens (Human), UniProt P15056, V600E). In words: Z′-LYTE kinase inhibition assay (Invitrogen), BRAF V600E. Type of experiment: biochemical. The note with it: 1 μM compound, Z′-LYTE method; read-out: % inhibition at 1 μM against BRAF V600E. The protocol:
(§1) Inhibitory activities Inhibitory activities of compounds against BRAF, and BRAF V600E were measured by Invitrogen using Z′-LYTE® Method as briefly described in the following. 4× Test compounds are dissolved in 1% DMSO. […] ATP solutions are diluted to a 4×ATP working concentration in Kinase Buffer (50 mM HEPES pH 7.5, 0.01% BRIJ-35, 10 mM MgCl2, 1 mM EGTA). Reaction started by 30-second shaking of mixture consisting of 2.5 μL 4× test compound, […] and 2.5 μL 4×ATP Solution on Bar-coded Corning, low volume NBS, black 384-well plate (Corning Cat. #3676). Then the mixture was incubated for 60-minute at room temperature for the kinase reaction, followed by addition of 5 μL of a 1:1024 dilution of development reagent A and 30-second plate shake. The mixture was then incubated for another 60-minute at room temperature for development reaction. Fluorescence was read by plate reader. IC50 was calculated by plotting the concentration of compound vs the percentage of inhibition in treated wells using GraphPad Prism 5.
The scale utilized in Table 3 is as follows: +++ less than 100 nM; and ++ greater than 100 nM.

The target of another experiment is KDR (VEGFR2) (Homo sapiens (Human), UniProt P35968). In words: Z′-LYTE kinase inhibition assay (Invitrogen), KDR. The format is biochemical. The note with it: 1 μM compound, Z′-LYTE method; read-out: % inhibition at 1 μM against KDR. The protocol:
as §1
Inhibitory activities of compounds against KDR (VEGFR2) were also measured by Invitrogen using Z′-LYTE® Method as described above with the following modification. The 2× KDR (VEGFR2)/Tyr 01 mixture is prepared in 50 mM HEPES pH 7.5, 0.01% BRIJ-35, 10 mM MgCl2, 1 mM EGTA. The final 10 μL Kinase Reaction consists of 0.5-11.7 ng KDR (VEGFR2) and 2 μM Tyr 01 in 50 mM HEPES pH 7.5, 0.01% BRIJ-35, 10 mM MgCl2, 1 mM EGTA. After the 1 hour Kinase Reaction incubation, 5 μL of a 1:256 dilution of Development Reagent B is added.
The scale utilized in Table 5 is as follows: +++ less than 100 nM; and ++ greater than 100 nM

For a further experiment, the system named is A375 cells. Description: Inhibition of cancer cell growth, MTT assay, A375. The format is cell-based. As to conditions: Homo sapiens, A-375, 72 h exposure. The protocol:
(§2) Inhibition of cell growth by compounds was measured using MTT assay (Mosmann, T., Journal of Immunological Methods, 1983, 65, 55-63). Tumor cell lines were purchased from ATCC (American Type Culture Collection, Manassas, Va.). All cell lines were maintained in RPMI 1640 (Hyclone) supplemented with 10% fetal bovine serum (FBS, Hyclone), glutamine (2 mM, Hyclone), and antibiotics (penicillin 100 U/mL and streptomycin 50 μg/mL) at 37° C. in a humidified atmosphere of 5% CO2 in air. Taxol (as a positive control, Sigma) and compounds were dissolved in DMSO (Sigma), and the final concentration of DMSO in the medium was 1%. Tumor cells were plated in 96-well plates at densities of about 4000 cells/well of a 96-well plate and allowed to adhere/grow for 24 h. They were then treated with various concentrations of drug for 72 h. 3-(4,5-Dimethylthiazol-2-yl)-2,5-diphenyltetrazolium bromide (MTT, Sigma) was used to determine the number of viable cells at the time of compound addition and the number of cells remaining after 72 h compound exposure. The number of cells remaining after 72 h was compared to the number of viable cells at the time of compound addition by measuring the absorbance at 570 nm, allowing for the calculation of growth inhibition.
(§3) All concentrations of compounds were tested in triplicate and controls were averaged over 4 wells. IC50 was calculated by plotting the concentration of compound vs the percentage of inhibition in treated wells using GraphPad Prism 5. […] The scale utilized in Table 6 is as follows: +++ less than 1000 nM; ++ between 1000 nM and 5000 nM; and + greater than 5000 nM. The scale utilized in Table 7 is as follows: +++ less than 2000 nM; ++ between 2000 nM and 5000 nM; and + greater than 5000 nM.
In general terms: Tetrazolium dyes change colour on reduction, which living cells bring about.

A further experiment concerns A549 cells. Description: Inhibition of cancer cell growth, MTT assay, A549. The format is cell-based. The note with it: Homo sapiens, A549, 72 h exposure. The procedure:
as §2, §3

Some results are limits rather than exact numbers.

Chain of BRAF V600E (P15056 whole entry V600E): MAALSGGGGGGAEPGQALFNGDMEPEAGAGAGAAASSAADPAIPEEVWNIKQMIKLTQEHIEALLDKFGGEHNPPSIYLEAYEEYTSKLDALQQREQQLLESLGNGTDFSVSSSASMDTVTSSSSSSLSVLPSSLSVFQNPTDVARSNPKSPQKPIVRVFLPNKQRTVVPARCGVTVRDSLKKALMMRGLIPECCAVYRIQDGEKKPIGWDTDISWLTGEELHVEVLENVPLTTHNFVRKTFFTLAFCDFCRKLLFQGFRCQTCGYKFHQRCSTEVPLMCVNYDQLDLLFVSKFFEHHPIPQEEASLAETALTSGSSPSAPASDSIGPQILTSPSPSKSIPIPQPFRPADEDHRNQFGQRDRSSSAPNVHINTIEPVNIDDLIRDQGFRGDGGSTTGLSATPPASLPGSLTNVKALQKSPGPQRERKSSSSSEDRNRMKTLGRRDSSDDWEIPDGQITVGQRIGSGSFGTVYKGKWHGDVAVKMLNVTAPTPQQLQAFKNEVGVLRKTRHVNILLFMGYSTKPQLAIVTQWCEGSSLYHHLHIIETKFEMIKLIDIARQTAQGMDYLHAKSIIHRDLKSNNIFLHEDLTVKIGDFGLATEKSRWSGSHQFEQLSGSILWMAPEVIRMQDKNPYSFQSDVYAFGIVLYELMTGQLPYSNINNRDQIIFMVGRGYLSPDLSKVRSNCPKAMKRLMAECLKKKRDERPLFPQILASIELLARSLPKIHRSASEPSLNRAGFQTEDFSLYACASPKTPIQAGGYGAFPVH
Chain of KDR (VEGFR2) (P35968 20-1356): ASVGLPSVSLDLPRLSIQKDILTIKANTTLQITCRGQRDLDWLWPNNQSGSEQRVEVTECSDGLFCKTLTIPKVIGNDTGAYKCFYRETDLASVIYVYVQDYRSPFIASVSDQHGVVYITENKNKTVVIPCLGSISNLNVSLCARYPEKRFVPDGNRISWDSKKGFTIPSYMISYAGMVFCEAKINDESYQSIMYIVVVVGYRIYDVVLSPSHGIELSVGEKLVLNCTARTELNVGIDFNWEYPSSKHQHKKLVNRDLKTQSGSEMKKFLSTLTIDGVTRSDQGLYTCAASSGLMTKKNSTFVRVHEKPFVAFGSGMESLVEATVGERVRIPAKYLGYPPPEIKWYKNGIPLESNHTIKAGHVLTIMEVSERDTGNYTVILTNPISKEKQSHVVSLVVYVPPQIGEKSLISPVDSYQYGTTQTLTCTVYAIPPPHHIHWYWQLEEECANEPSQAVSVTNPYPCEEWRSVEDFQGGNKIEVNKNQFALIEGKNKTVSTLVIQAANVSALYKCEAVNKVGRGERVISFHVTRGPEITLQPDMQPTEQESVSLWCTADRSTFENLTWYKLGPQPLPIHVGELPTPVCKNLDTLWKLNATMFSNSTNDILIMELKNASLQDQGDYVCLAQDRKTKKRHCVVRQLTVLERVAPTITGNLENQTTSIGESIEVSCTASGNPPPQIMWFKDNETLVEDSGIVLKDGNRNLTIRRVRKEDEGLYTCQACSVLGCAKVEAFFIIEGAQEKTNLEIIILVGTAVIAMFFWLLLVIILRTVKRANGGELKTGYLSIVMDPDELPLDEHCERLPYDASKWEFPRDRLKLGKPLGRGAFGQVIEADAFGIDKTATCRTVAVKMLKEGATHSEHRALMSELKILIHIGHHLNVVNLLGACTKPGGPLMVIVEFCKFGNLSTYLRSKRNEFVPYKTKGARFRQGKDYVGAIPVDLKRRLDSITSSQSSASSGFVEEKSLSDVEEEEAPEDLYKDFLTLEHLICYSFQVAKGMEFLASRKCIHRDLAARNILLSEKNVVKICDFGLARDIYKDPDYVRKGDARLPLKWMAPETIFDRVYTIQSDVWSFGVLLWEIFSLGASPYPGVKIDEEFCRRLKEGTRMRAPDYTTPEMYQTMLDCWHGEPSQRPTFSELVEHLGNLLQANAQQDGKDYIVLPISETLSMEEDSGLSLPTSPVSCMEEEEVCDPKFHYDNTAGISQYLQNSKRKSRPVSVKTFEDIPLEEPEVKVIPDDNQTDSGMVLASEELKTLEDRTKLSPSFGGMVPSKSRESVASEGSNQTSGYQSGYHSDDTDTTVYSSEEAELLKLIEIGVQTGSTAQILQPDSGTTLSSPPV

For the compound `O=C(Nc1ccc(Cl)cc1)Nc1ccc(F)c(C(=O)c2ccc3ncc(N4CCOCC4)nc3c2)c1` [Compound C054, 1-(4-chlorophenyl)-3-(4-fluoro-3-(3-morpholinoquinoxaline-6-carbonyl)phenyl)urea], the inhibition at 1 µM on BRAF V600E and on KDR (VEGFR2) was above 89% throughout. Further, the IC50 (usually the concentration at which inhibition is half-maximal) is below 1 µM with A375 cells and below 2 µM in the experiment on A549 cells.

In the case of `O=C(Nc1ccc(F)c(Cl)c1)Nc1ccc(F)c(C(=O)c2ccc3ncc(N4CCOCC4)nc3c2)c1` [Compound C055, 1-(3-chloro-4-fluorophenyl)-3-(4-fluoro-3-(3-morpholinoquinoxaline-6-carbonyl)phenyl)urea], the inhibition at 1 µM at BRAF V600E and on KDR (VEGFR2) was above 89% in each case. The IC50 with A375 cells was below 1 µM; in the experiment on A549 cells, below 2 µM.

Regarding `O=C(Nc1cccc(Cl)c1)Nc1ccc(F)c(C(=O)c2ccc3ncc(N4CCOCC4)nc3c2)c1` [Compound C056, 1-(3-chlorophenyl)-3-(4-fluoro-3-(3-morpholinoquinoxaline-6-carbonyl)phenyl)urea], the inhibition at 1 µM on BRAF V600E and on KDR (VEGFR2) was above 89% in each case. Also, the IC50 in the experiment with A375 cells was below 1 µM; in the experiment on A549 cells it was 2 to 5 µM.

In the case of `O=C(Nc1ccc(C(F)(F)F)cc1)Nc1ccc(F)c(C(=O)c2ccc3ncc(N4CCOCC4)nc3c2)c1` [Compound C057, 1-(4-fluoro-3-(3-morpholinoquinoxaline-6-carbonyl)phenyl)-3-(4-(trifluoromethyl)phenyl)urea], the inhibition at 1 µM at BRAF V600E and at KDR (VEGFR2) was above 89% throughout. Besides, the half-inhibitory concentration (IC50) was below 1 µM with A375 cells and below 2 µM in the experiment with A549 cells.

Regarding `O=C(Nc1ccc(Cl)c(Cl)c1)Nc1ccc(F)c(C(=O)c2ccc3ncc(N4CCOCC4)nc3c2)c1` [Compound C058, 1-(3,4-dichlorophenyl)-3-(4-fluoro-3-(3-morpholinoquinoxaline-6-carbonyl)phenyl)urea], the inhibition at 1 µM on BRAF V600E and on KDR (VEGFR2) was above 89% throughout. Moreover, the IC50 is below 1 µM in the experiment with A375 cells and below 2 µM in the experiment with A549 cells.

For the compound `O=C(Nc1cc(F)cc(Cl)c1)Nc1ccc(F)c(C(=O)c2ccc3ncc(N4CCOCC4)nc3c2)c1` [Compound C059, 1-(3-chloro-5-fluorophenyl)-3-(4-fluoro-3-(3-morpholinoquinoxaline-6-carbonyl)phenyl)urea], the inhibition (in general, the relative decrease from the control value, in per cent) at 1 µM on BRAF V600E is above 89%; at KDR (VEGFR2) it was 70 to 89%. For the same compound, the IC50 in the experiment on A375 cells lay within 1 to 5 µM; in the experiment with A549 cells it was 2 to 5 µM.

As to `O=C(Nc1cc(F)cc(Cl)c1)Nc1cc(F)cc(C(=O)c2ccc3ncc(N4CCOCC4)nc3c2)c1` [Compound C060, 1-(3-chloro-5-fluorophenyl)-3-(3-fluoro-5-(3-morpholinoquinoxaline-6-carbonyl)phenyl)urea], the inhibition at 1 µM on BRAF V600E is above 89%; on KDR (VEGFR2) it was below 70%. Further, the IC50 with A375 cells was 1 to 5 µM; with A549 cells it was 2 to 5 µM.

Regarding `O=C(Nc1cc(F)cc(C(=O)c2ccc3nccnc3c2)c1)Nc1ccc(Cl)c(F)c1` [Compound C061, 1-(4-chloro-3-fluorophenyl)-3-(3-fluoro-5-(quinoxaline-6-carbonyl)phenyl)urea], the figures for the inhibition at 1 µM at BRAF V600E and on KDR (VEGFR2) were above 89% and below 70%, respectively. Moreover, the IC50 in the experiment with A375 cells was above 5 µM; with A549 cells, 2 to 5 µM.

As to `O=C(Nc1cc(F)cc(Cl)c1)Nc1cc(F)cc(C(=O)c2ccc3nccnc3c2)c1` [Compound C062, 1-(3-chloro-5-fluorophenyl)-3-(3-fluoro-5-(quinoxaline-6-carbonyl)phenyl)urea], the inhibition at 1 µM at BRAF V600E was above 89%; at KDR (VEGFR2), below 70%. For the same compound, the IC50 was above 5 µM in the experiment with A375 cells and 2 to 5 µM in the experiment with A549 cells.

On to `O=C(Nc1ccc(Cl)cc1)Nc1cc(F)cc(C(=O)c2ccc3nccnc3c2)c1` [Compound C063, 1-(4-chlorophenyl)-3-(3-fluoro-5-(quinoxaline-6-carbonyl)phenyl)urea], for which the figures for the inhibition at 1 µM at BRAF V600E and at KDR (VEGFR2) were above 89% and below 70%, respectively. The IC50 in the experiment with A375 cells was 1 to 5 µM; in the experiment with A549 cells it was above 5 µM.

Turning to `O=C(Nc1ccc(F)cc1)Nc1cc(F)cc(C(=O)c2ccc3nccnc3c2)c1` [Compound C064, 1-(3-fluoro-5-(quinoxaline-6-carbonyl)phenyl)-3-(4-fluorophenyl)urea], the inhibition at 1 µM at BRAF V600E was above 89%; on KDR (VEGFR2), below 70%. Moreover, the 50% inhibitory concentration (IC50) with A375 cells and in the experiment on A549 cells was above 5 µM each time.

Turning to `O=C(Nc1cc(F)cc(C(=O)c2ccc3nccnc3c2)c1)Nc1ccc(F)c(F)c1` [Compound C065, 1-(3,4-difluorophenyl)-3-(3-fluoro-5-(quinoxaline-6-carbonyl)phenyl)urea], the figures for the inhibition at 1 µM on BRAF V600E and at KDR (VEGFR2) were above 89% and below 70%, respectively. The IC50 in the experiment with A375 cells and in the experiment on A549 cells was above 5 µM throughout.

Consider `O=C(Nc1ccc(C(F)(F)F)cc1)Nc1cc(F)cc(C(=O)c2ccc3nccnc3c2)c1` [Compound C066, 1-(3-fluoro-5-(quinoxaline-6-carbonyl)phenyl)-3-(4-(trifluoromethyl)phenyl)urea], for which the inhibition at 1 µM on BRAF V600E is above 89%; at KDR (VEGFR2), below 70%. The results for the IC50 in the experiment on A375 cells and in the experiment with A549 cells were 1 to 5 µM and 2 to 5 µM, respectively.

Consider `O=C(Nc1cc(F)cc(C(=O)c2ccc3nccnc3c2)c1)Nc1ccc(F)c(Cl)c1` [Compound C067, 1-(3-chloro-4-fluorophenyl)-3-(3-fluoro-5-(quinoxaline-6-carbonyl)phenyl)urea], for which the figures for the inhibition at 1 µM on BRAF V600E and on KDR (VEGFR2) were above 89% and below 70%, respectively. The concentration for half-maximal inhibition (IC50) with A375 cells lay in the range of 1 to 5 µM; with A549 cells, 2 to 5 µM.

Consider `O=C(Nc1cccc(Cl)c1)Nc1cc(F)cc(C(=O)c2ccc3nccnc3c2)c1` [Compound C068, 1-(3-chlorophenyl)-3-(3-fluoro-5-(quinoxaline-6-carbonyl)phenyl)urea], for which the inhibition at 1 µM at BRAF V600E is above 89%; at KDR (VEGFR2), below 70%. In addition, the concentration for half-maximal inhibition (IC50) with A375 cells and with A549 cells was above 5 µM in each case.

`O=C(Nc1cc(F)cc(C(=O)c2ccc3nccnc3c2)c1)Nc1ccc(Cl)c(Cl)c1` [Compound C069, 1-(3,4-dichlorophenyl)-3-(3-fluoro-5-(quinoxaline-6-carbonyl)phenyl)urea]: the inhibition at 1 µM is above 89% on BRAF V600E and below 70% at KDR (VEGFR2). Also, the IC50 in the experiment with A375 cells is above 5 µM; in the experiment on A549 cells, below 2 µM.

Turning to `O=C(Nc1ccc(F)cc1)Nc1ccc(F)c(C(=O)c2ccc3nccnc3c2)c1` [Compound C070, 1-(4-fluoro-3-(quinoxaline-6-carbonyl)phenyl)-3-(4-fluorophenyl)urea], the inhibition at 1 µM on BRAF V600E and on KDR (VEGFR2) was above 89% each time. The IC50 in the experiment with A375 cells is 1 to 5 µM; in the experiment with A549 cells, above 5 µM.

On to `O=C(Nc1ccc(F)c(F)c1)Nc1ccc(F)c(C(=O)c2ccc3nccnc3c2)c1` [Compound C071, 1-(3,4-difluorophenyl)-3-(4-fluoro-3-(quinoxaline-6-carbonyl)phenyl)urea], for which the inhibition at 1 µM on BRAF V600E was above 89%; at KDR (VEGFR2), below 70%. The values for the IC50 in the experiment on A375 cells and in the experiment with A549 cells were 1 to 5 µM and above 5 µM, respectively.
